Literature values, collected in patent US11818994B2, “Brachiaria endophytes and related methods” (Agriculture Victoria Services PTY LTD, priority 2015, dated 2023).

Test system: Nitrosomonas spp
Conditions: Subbarao et al. 2009

brachialactone
biocidal activity against Nitrosomonas spp: biocidal activity
